Results from US20020188202A1, “Method of diagnosis and treatment and related compositions and apparatus” (priority 1996, published 2002).
Entries after “also recorded” stand apart in the source; their conditions may differ.

Experiments:
[1] = test system: migraine patients with vasospasm on TCD; experiment: Migraine patients treated with Nitroglycerine patches, TCD and neurological exam; format: in vivo, human patients
Protocol: All patients are evaluated with a complete history, physical exam, and neurological exam by a Board Certified Neurologist. All patients have blood work consisting of a CBC with differential count and platelets as well as an SMA-30 obtained. All whiplash related patients underwent a CT or MRI of the brain, EEG and qEEG, B-mode and spectral analysis ultrasound of the subclavian, carotid, and vertebral circulation, and Transcranial Doppler (TCD) examination of the intracranial circulation. In some situations, repetitive Transcranial Doppler examinations are performed on the same patient in the same day. Initially, these tests are performed by maintaining the probe on the patient's head through the course of several hours, but later the technique involves using the same probe, patient position, technician, depth, and cranial window with serial but interrupted exams across the course of the day. In all cases, the highest spectral frequencies are recorded, as well as repeat exams at the same depth and window as the baseline pre-medication windows were obtained. Immediately prior to initial TCD exams, a neurological exam is carried out. At the time of initiation of treatment for the cerebral vasospasm, at which time vasoactive medications are administered after the baseline TCD and neuro exam are obtained, repeat TCD exams are carried out and when medication effects on the intracranial circulation were identified, repeat neurological exams are obtained. In 5 patients, P300 are obtained prior to initiation of treatment and, again, several months later. The same methodology is used in those patients referred for evaluation of possible MS-like syndrome as recognized in the recent global settlement. With these patients, triple evoked potentials, EEG and qEEG, and a vascular evaluation as outlined above is carried out in all patients, and in 11 who decided to attempt treatment with vasoactive drugs, the methodology outlined above for initiation of as in the MVA-related post-concussion syndrome are used. 10 of the 19 MS-like syndrome patients additionally had brain MRI tests performed. […]

[2] = test system: patients with cerebral vasospasm; experiment: Vasoactive medications tried on Applicant's patients with vasospasm, monitored by Transcranial Doppler (TCD), exam and symptoms
Text: As headache was a major complaint of many of Applicant's patients, we tried these medications out including Imitrex (Sumatriptan), IM Toradol (Ketoralac) and other medications under direct monitoring. […] Rather, it was expected that one or another set of medications might help point the way into using specific classes of medications or approaches. Accordingly, each of these patients. equivalent of a large number of patients, were monitored continuously across the day.
With respect to the different monitoring tools, some were more helpful than others. […] The Brain Stem Auditory Evoked Response and other evoked potential tests were very insensitive tools for monitoring, because of the length of time required to perform the test after short-acting medications were given in IM or sublingual or nasal spray administration route. […] These symptoms included not only headache, but also sensations of confusion, balance disorder, abnormal Romberg or Tandem Gait of other neurological abnormalities.
As headache was a major complaint of many of these patients, Applicant tried these medications out including Imitrex (Sumatriptan), IM Toradol (Ketoralac) and other medications under direct monitoring. […] Rather, it was expected that one or another set of medications might help point the way into using specific classes of medications or approaches. Accordingly, each of these patients, equivalent of a large number of patients, is monitored continuously across the day.
With respect to the different monitoring tools, some were more helpful than others. […] The Brain Stem Auditory Evoked Response and other evoked potential tests were very insensitive tools for monitoring, because of the length of time required to perform the test after short-acting medications were given in IM or sublingual or nasal spray administration route.

[3] = test system: adult ADD patients with vasospasm; experiment: Attention Deficit Disorder siblings treated with vasodilators, serial TCD and neuropsychological testing; format: in vivo, human patients; conditions: male; for right MCA mean flow velocity: baseline 0.86; for left MCA mean flow velocity: baseline 0.92
Protocol: Both were administered a battery of tests which measured neuropsychological functioning and personality variables.
On referral for neurological evaluation, mild physical and significant objective testing abnormalities were found. […] Both, further, had difficulty performing a Tandem Gait with complete ease. The physical exam was otherwise normal. An EEG and computerized EEG were performed and were abnormal.
Both individuals were treated with vasodilating medications for 10 months and received psychotherapy and vocational counseling. Relaxation and hypnotherapy were also used to develop visualization skills for both recall of successful social and work experiences and to visualize successful outcomes of activities to do.
In serial testing, the […] underwent TCD's on three separate occasions on the same day. […] By the end of the day, […] identified that […] could read, understand and retain news articles and magazine articles. […] could also follow a television show throughout. […] could do neither at the beginning of the day.
On the basis of the objective disorders of flow and the patient's reported and observed improvement during the trial episode of administering medications to decrease the observed vasospasm, we started the sibling on vasodilators. […] This regimen was made up of a low dose Calcium Channel Blocker, and an ACE inhibitor along with low dose Nitroglycerine and a Clonidine patch.

[4] = test system: patient with migraine, schizophrenic reaction and vasospasm; experiment: Case study: psychosis caused by cerebral ischemia, EEG and TCD; format: in vivo, human patient; conditions: single patient
[5] = human, in vivo, listed as Nitroglycerine
[6] = second TCD of the day after repetitive applications
[7] = third TCD of the day after repetitive applications

For `O=[N+]([O-])OCC(CO[N+](=O)[O-])O[N+](=O)[O-]` [Nitroglycerin], the “follow-up TCD at the end of application of the patch” value ([1]; 3 patients) was “confirmed reduction of the vasospasm”, the “lower extremity hyper-reflexia, Rhomberg and tandem gait abnormalities” value ([1]; human, in vivo) was “all resolved” and the headache ([1]; patches applied for 10 minutes to 1 hour, 5 patients) was “headache resolved”. For the same compound, the “effect on vessels seen on TCD / ultrasound (vasoconstriction or dilatation)” value ([2]; human, in vivo) was “resulted in vascular dilatation”, the headache ([2]; human, in vivo) was “improvement in the patient's headache” and the “neurological exam and other neurological abnormalities” value ([2]; human, in vivo) was “improvement of any other neurological abnormalities”. The headache [2, 5] was “alleviated or treated the headache”, the “neurological exam and other neurological abnormalities” value [2, 5] was “clinical and neurological exam improvement” and the “transient supersensitivity (transient worsening of the vasospasm) on early administration” value ([2]; witnessed on TCD or clinically) was “can give transient severe vasoconstrictive episodes”. The “concentration (self-assessment)” value ([3]; same day serial testing) was “significant improvement in concentration”, the “neurological exam (balance testing)” value ([3]; same day serial testing) was “exam progressively normalized” and the “right MCA mean flow velocity” value [3, 6] was 0.79 meters/second. The “left MCA mean flow velocity” value [3, 6] was 0.84 meters/second, the “right MCA mean flow velocity” value [3, 7] was 0.72 meters/second and the “left MCA mean flow velocity” value [3, 7] was 0.79 meters/second. The headaches / migraines [4] was “complete resolution of their daily headaches; also recorded: headaches completely resolved as did memory disturbances, concentration problems and emotional lability; also recorded: responded promptly”.
